The results in this text go back to ChEMBL document CHEMBL5244255, “An insight on medicinal attributes of 1,2,4-triazoles” (Eur J Med Chem, 2020).

pIC50: −log10 of the molar value. Converted amounts (≈) assume the structure as drawn. “And” between values parts separate entries of the source, which are not always exact repeats. Equal values may be shown once.

Assay [1] has as its system Mycobacterium tuberculosis. Put plainly: Antimycobacterial activity against Mycobacterium tuberculosis H37Rv measured […] by MABA assay. The format is functional. Background: Resazurin is reduced to fluorescent resorufin, in cell work by metabolically active cells.
In assay [2] the test system is Mycobacterium tuberculosis. In words: Potency index, ratio of test compound MIC to Pyrazinamide MIC for antimycobacterial activity against Mycobacterium tuberculosis H37Rv. The format is functional.
The next assay relates to MDA-MB-231. In words: Antiproliferative activity against human MDA-MB-231 cells assessed as cell growth inhibition by MTT assay. The format is functional, cell-based. In general terms: Tetrazolium assays rely on reduction of a dye to a coloured formazan, in cell work by metabolically active cells.
The subject of a further assay is Candida albicans. In words: Antifungal activity against Candida albicans Y0109 assessed as fungal growth inhibition. The format is functional.
In assay [3] the test system is Xanthomonas oryzae pv. oryzae. Put plainly: Antibacterial activity against Xanthomonas oryzae pv. oryzae assessed as bacterial growth inhibition. The format is functional, organism-based.
The test system of a further assay is Staphylococcus aureus. Put plainly: Antibacterial activity against Staphylococcus aureus assessed as bacterial growth inhibition incubated for 16 hrs. The format is functional.
In a further assay the test system is BT-20. In words: Anticancer activity against human BT-20 cells assessed as cell growth inhibition incubated for 48 hrs by MTT assay. The format is functional, cell-based. The settings on record: BT-20, 48 h.
The test system of a further assay is DU-145. In words: Anticancer activity against human DU-145 cells assessed as cell growth inhibition incubated for 48 hrs by MTT assay. The format is functional, cell-based. The settings on record: DU-145, 48 h.
The subject of the next assay is A549. In words: Anticancer activity against human A549 cells assessed as cell growth inhibition incubated for 48 hrs by MTT assay. The format is functional, cell-based. The settings on record: A549, 48 h.
Assay [4] in a line: Anticancer activity against human SK-MEL-128 cells assessed as cell growth inhibition incubated for 48 hrs by MTT assay. The format is functional, cell-based. The settings on record: SK-MEL-128, 48 h.
Assay [5] can be described thus: Inhibition of Mycobacterium tuberculosis shikimate dehydrogenase.
Assay [6] deals with Mycobacterium tuberculosis. Put plainly: Antimycobacterial activity against Mycobacterium tuberculosis H37Rv measured after 8 to 9 days. The format is functional. The settings on record: time 8-9 day.
Assay [7] concerns Mycobacterium tuberculosis. In words: Antimycobacterial activity against Mycobacterium tuberculosis H37Rv. The format is functional.
The test system of a further assay is Plasmodium falciparum. Put plainly: Antimalarial activity against Plasmodium falciparum. The format is functional, organism-based.
In a further assay the test system is Jurkat. In words: Antiproliferative activity against human jurkat cells assessed as cell growth inhibition incubated for 48 hrs by MTT assay. The format is functional, cell-based.
For a further assay, the system named is RS4-11. In words: Antiproliferative activity against human RS4-11 cells assessed as cell growth inhibition incubated for 48 hrs by MTT assay. The format is functional, cell-based. The settings on record: RS4-11, 48 h.
In a further assay the test system is MCF7. In words: Antiproliferative activity against human MCF7 cells assessed as cell growth inhibition incubated for 48 hrs by MTT assay. The format is functional, cell-based. The settings on record: MCF7, 48 h.
The next assay deals with HT-29. In words: Antiproliferative activity against human HT-29 cells assessed as cell growth inhibition incubated for 48 hrs by MTT assay. The format is functional, cell-based. The settings on record: HT-29, 48 h.
Another assay has as its system HeLa. In words: Antiproliferative activity against human HeLa cells assessed as cell growth inhibition incubated for 48 hrs by MTT assay. The format is functional, cell-based.
In assay [8] the test system is Mycobacterium tuberculosis. In words: Antimycobacterial activity against Mycobacterium tuberculosis H37Rv measured after 21 days. The format is functional. The settings on record: 504 h, time 21 day.
The next assay has as its system Leishmania major. Put plainly: Antileishmanial activity against promastigotes stage of Leishmania major. The format is functional, organism-based.
[9] abbreviates: Plasmodium falciparum, read-out: IC50.

In the case of `COc1ccc(-n2ncn(Cc3cn(Cc4cc(=O)oc5ccc(C(C)(C)C)cc45)nn3)c2=O)cc1`, the minimum inhibitory concentration (MIC) (commonly the lowest concentration found to suppress growth) in assay [1] was determined as 1.6 µg/mL (≈ 3.29 µM). Also, the Ratio in [2] was found to be 2.

Turning to `Cc1ccc(-n2nc(C)n(-n3c(-c4cc5ccccc5oc4=O)cs/c3=N\c3ccccc3)c2=O)cc1`, the IC50 – broadly, the point on the concentration scale where inhibition reaches its midpoint – with MDA-MB-231 worked out at 0.16 µg/mL (≈ 0.315 µM). Take `CC(C)C(=O)OC1CCN(CC(O)(Cn2cncn2)c2ccc(F)cc2F)CC1` (stereo not drawn): in the assay on Candida albicans, the MIC80 (commonly an inhibitory concentration at the 80% level, which refers to growth in some studies and to a panel of isolates in others) is 9 nM (≈ 3.68 ng/mL).

On to `CC(C)(C)C(=O)OC1CCN(CC(O)(Cn2cncn2)c2ccc(F)cc2F)CC1` (stereo not drawn), for which the MIC80 with Candida albicans amounted to 9 nM (≈ 3.8 ng/mL). With `O=C(CSc1nnc(C2CCN(c3ncnc4ccccc34)CC2)n1-c1ccccc1)Nc1cccc([N+](=O)[O-])c1`, the concentration for a half-maximal effect (EC50) (commonly the concentration that produces a half-maximal response) in assay [3] came out at 34.5 µg/mL (≈ 60.9 µM).

Turning to `O=C(CSc1nnc(C2CCN(c3ncnc4ccccc34)CC2)n1-c1ccccc1)Nc1cccc(F)c1`, the EC50 in assay [3] worked out at 34.5 µg/mL (≈ 63.9 µM). As for `Cc1ccc(C(=O)NCc2nnc(S)n2/N=C/c2ccc(Cl)cc2)cc1`, in the assay with Staphylococcus aureus, the minimum inhibitory concentration (MIC) was determined as 3.12 µg/mL (≈ 8.1 µM).

For `Cc1ccc2c(Cn3cc(Cn4cnn(-c5ccccc5)c4=O)nn3)cc(=O)oc2c1`, the lowest concentration to inhibit growth in [1] (MIC) was 1.6 µg/mL (≈ 3.86 µM). Further, the Ratio in assay [2] turned out to be 2. With `Nn1c(Cc2ccc(Cl)cc2)nn(CC(=O)NNC(=O)c2cc3cc(Cl)cc(Cl)c3oc2=O)c1=O`, the 50% inhibitory concentration (IC50) (in the assay on BT-20; in the assay with DU-145; in the assay with A549; in [4]) was 3.1 µg/mL (≈ 5.76 µM) in each case. The compound `COc1ccc(-n2ncn(Cc3cn(Cc4cc(=O)oc5cc(C)ccc45)nn3)c2=O)cc1` had an MIC in assay [1] of 1.6 µg/mL (≈ 3.6 µM). Further, the Ratio in [2] is given as 2. For the compound `Nn1c(Cc2ccc(Cl)c(Cl)c2)nn(CC(=O)NNC(=O)c2cc3cc(Cl)ccc3oc2=O)c1=O`, the IC50 (in the assay with BT-20; with DU-145; with A549; in assay [4]) was 3.1 µg/mL (≈ 5.76 µM) each time.

In [5], `O=[N+]([O-])c1ccc(C2=Nn3c(nnc3-c3ccnc(F)c3)CC2)cc1` registered an IC50 of 73.57 µg/mL (≈ 217 µM). In [6], this compound yielded a minimal inhibitory concentration (MIC) of 0.25 µg/mL (≈ 0.739 µM). In the case of `COc1ccc(-n2ncn(Cc3cn(Cc4cc(=O)oc5ccc6ccccc6c45)nn3)c2=O)cc1`, inhibition of growth in assay [1] (MIC) required 1.6 µg/mL (≈ 3.33 µM). Besides, the Ratio in assay [2] is 2. The compound `CC1CC(C)(C)CC(O)(c2nnc(-c3ccncc3)[nH]2)C1` (stereo not drawn) returned an MIC in assay [7] of 0.59 µg/mL (≈ 2.06 µM). In the case of `Cc1ccc(-c2cc(-c3c(C)nn(-c4ccccc4)c3-n3cncn3)n3c(c2)nc2ccccc23)cc1`, the IC50 in the assay on Plasmodium falciparum (setting [9]) was determined as 0.041 µg/mL (≈ 0.0851 µM). Consider `O=C(CSc1nnc(C2CCN(c3ncnc4ccccc34)CC2)n1-c1ccccc1)Nc1ccccc1[N+](=O)[O-]`, for which, in assay [3], the EC50 is 34.5 µg/mL (≈ 60.9 µM). `O=c1cc(Cn2cc(Cn3cnn(-c4ccccc4)c3=O)nn2)c2c(ccc3ccccc32)o1` had an MIC in assay [1] of 1.6 µg/mL (≈ 3.55 µM). Further, the Ratio in assay [2] was 2. On to `CCCCCCCCCC(=O)OC1CCN(CC(O)(Cn2cncn2)c2ccc(F)cc2F)CC1` (stereo not drawn), for which, in the assay with Candida albicans, the MIC80 stood at 9 nM (≈ 4.43 ng/mL). Still for that read-out and setting: in the case of `CCCCCCCCCCCC(=O)OC1CCN(CC(O)(Cn2cncn2)c2ccc(F)cc2F)CC1` (stereo not drawn) it was 9 nM (≈ 4.69 ng/mL). In the case of `Cc1nn(-c2ccccc2)c(-n2cncn2)c1-c1cc(-c2cc[nH]c2)cc2nc3ccccc3n12`, the IC50 in the assay with Plasmodium falciparum was 0.092 µg/mL and 0.041 µg/mL. Consider `COc1cc(C(=O)n2nc(-c3ccc(Br)cc3)nc2N)cc(OC)c1OC`, for which the pIC50 in the assay on Jurkat, in the assay with RS4-11, in the assay with MCF7, with HT-29 and in the assay on HeLa was above 6.00 each time.

On to `C#Cc1nnc2c3ccccc3cnn12`, for which the MIC in assay [8] is 0.5 µg/mL (≈ 2.57 µM). With `O=C(CSc1nnc(C2CCN(c3ncnc4ccccc34)CC2)n1-c1ccccc1)Nc1ccc(F)cc1F`, the EC50 in assay [3] amounted to 34.5 µg/mL (≈ 61.9 µM). Consider `CCCC(=O)OC1CCN(CC(O)(Cn2cncn2)c2ccc(F)cc2F)CC1` (stereo not drawn), for which, in the assay on Candida albicans, the MIC80 was 9 nM (≈ 3.68 ng/mL).

Consider `Cc1nn(-c2ccccc2)c(=O)n1-n1c(-c2cc3ccccc3oc2=O)cs/c1=N\c1ccc(Cl)cc1`, for which, in the assay on MDA-MB-231, the IC50 stood at 0.16 µg/mL (≈ 0.303 µM). In the assay on Leishmania major, `CCCCCCCCCCCCCCCCOP(=O)([O-])OCC[N+](C)(C)C` [MILTEFOSINE] yielded an IC50 of 3.19 µg/mL (≈ 7.83 µM).

As for `OC1CCC(C(O)c2nnc(-c3ccncc3)[nH]2)CC1O` (stereo not drawn), it took 0.59 µg/mL (≈ 2.03 µM) to inhibit growth in assay [7] (MIC). Take `COc1ccc(/C=N/n2c(S)nnc2CNC(=O)c2ccc(C)cc2)cc1`: the MIC in the assay on Staphylococcus aureus turned out to be 3.12 µg/mL (≈ 8.19 µM). As for `COc1ccc(/C=N/n2c(S)nnc2CNC(=O)c2ccccc2)cc1`, the MIC with Staphylococcus aureus was 3.12 µg/mL (≈ 8.5 µM). `COc1ccc(-n2ncn(Cc3cn(Cc4cc(=O)oc5ccc(Cl)cc45)nn3)c2=O)cc1` returned a minimum inhibitory concentration (MIC) in assay [1] of 1.6 µg/mL (≈ 3.44 µM). Also, in [2], the Ratio was 2. Consider `COc1ccc(-c2cc(-c3c(C)nn(-c4ccccc4)c3-n3cncn3)n3c(c2)nc2ccccc23)cc1`, for which the IC50 in the assay with Plasmodium falciparum (setting [9]) turned out to be 0.041 µg/mL (≈ 0.0824 µM).
